{
  "source": "paper PMC4254008",
  "about": "(European journal of medicinal chemistry, 2014)",
  "key": {"[1]": {"conditions": "orally ingested, humans; cited from earlier work"}, "MRSA strain BAA1762": {"test_system": "MRSA strain BAA1762", "assay": "S. aureus thigh muscle infection model, in vivo efficacy", "design": "species or system Swiss Webster mice", "conditions": "mouse thigh muscle infection model"}, "[2]": {"test_system": "Staphylococcus aureus enoyl-ACP reductase (saFabI)", "conditions": "cited from earlier work"}, "[3]": {"test_system": "S. aureus infected thigh muscles", "conditions": "in vivo; cited from earlier work"}, "[4]": {"conditions": "in vivo; cited from earlier work"}},
  "data": [
    {"compound": "Oc1cc(Cl)ccc1Oc1ccc(Cl)cc1Cl", "note": "[triclosan]", "values": [
      {"measurement": "absorption from the gastrointestinal tract", "setting": "[1]", "result": "readily absorbed"}
    ]},
    {"compound": "CCCCCCc1ccc(Oc2ccccc2C#N)c(O)c1", "note": "[PT119]", "values": [
      {"measurement": "reduction in the CFU's", "setting": "MRSA strain BAA1762", "result": 3, "unit": "log"},
      {"measurement": "residence time", "setting": "[2]; on saFabI", "result": 750, "unit": "min"},
      {"measurement": "Ki", "setting": "[2]; saFabI", "result": 0.01, "unit": "nM"}
    ]},
    {"compound": "[^18F]FDG", "values": [
      {"measurement": "accumulation in infected thigh relative to healthy thigh", "setting": "[3]", "result": "2.3 – 2.6 times"}
    ]},
    {"compound": "AFN-1252", "values": [
      {"measurement": "AUC/MIC", "setting": "[4]", "result": 20}
    ]}
  ]
}
